Measurements as given in patent US20030176314A1, “Compounds for the treatment of pain” (priority 2001, published 2003).
pKi: −log10 of the molar value.

Assays:
[1] = target: T1, human α1D adrenergic receptor (Homo sapiens, UniProt P25100); test: Binding at human α1D adrenergic receptor; details: Table 8; read-out: hα1D Ki
T1 construct: host or cells: LM(tk-) cells, line L-α1A
T1 sequence (P25100 1-572): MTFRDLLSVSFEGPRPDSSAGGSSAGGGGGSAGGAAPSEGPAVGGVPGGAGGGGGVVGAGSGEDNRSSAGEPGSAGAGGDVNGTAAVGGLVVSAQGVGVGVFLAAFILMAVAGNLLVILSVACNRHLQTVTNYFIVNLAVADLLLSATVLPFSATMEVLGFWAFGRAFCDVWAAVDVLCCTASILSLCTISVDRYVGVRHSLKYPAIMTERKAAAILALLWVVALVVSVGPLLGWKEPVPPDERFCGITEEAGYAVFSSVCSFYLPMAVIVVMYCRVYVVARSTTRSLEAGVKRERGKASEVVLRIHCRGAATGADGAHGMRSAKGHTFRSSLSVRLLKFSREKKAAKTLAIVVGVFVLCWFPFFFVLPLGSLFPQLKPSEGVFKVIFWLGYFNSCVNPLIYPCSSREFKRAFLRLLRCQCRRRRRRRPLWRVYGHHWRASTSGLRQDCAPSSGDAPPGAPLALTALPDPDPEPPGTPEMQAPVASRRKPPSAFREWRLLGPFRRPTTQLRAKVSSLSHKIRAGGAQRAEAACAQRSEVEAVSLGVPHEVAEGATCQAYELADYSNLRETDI
From the text: (§1) α1 Human Adrenergic Receptors: To determine the binding of compounds to human α1 receptors, LM(tk−) cell lines stably transfected with the genes encoding the α1a, α1b, and α1d receptors were used. The nomenclature describing the α1 receptors was changed recently, such that the receptor formerly designated α1a is now designated α1d, and the receptor formerly designated α1c is now designated α1a. The cell lines expressing these receptors were deposited with the ATCC before the nomenclature change and reflect the subtype designations formerly assigned to these receptors. Thus, the cell line expressing the receptor described herein as the α1a receptor was deposited with the ATCC on Sep. […] The cell line expressing receptor described herein as the α1d receptor was deposited with the ATCC on Sep. […] The cell line expressing the α1b receptor is designated L-α1B, and was deposited on Sep.
(§2) The binding affinity (Ki) of these compounds were tested according to the protocols described herein at the following receptors; human α1A, α1B, α1D, α2A, α2B, and α2C adrenergic receptors; human Y1, Y2, Y4, and Y5 receptors; and N-Methyl-D-aspartic acid (NMDA) receptor channels. The binding interactions of these compounds were additionally tested at the norepinephrine (NE) transporter (NE uptake) and serotonin (5-hydroxytryptamine (5HT)) transporter (5HT uptake) according to protocols described herein

[2] = target: T2, human α1A adrenergic receptor (Homo sapiens, UniProt P35348); test: Binding at human α1A adrenergic receptor; details: Table 8; read-out: hα1A Ki
T2 construct: host or cells: LM(tk-) cells, line L-α1C
T2 sequence (P35348 1-466): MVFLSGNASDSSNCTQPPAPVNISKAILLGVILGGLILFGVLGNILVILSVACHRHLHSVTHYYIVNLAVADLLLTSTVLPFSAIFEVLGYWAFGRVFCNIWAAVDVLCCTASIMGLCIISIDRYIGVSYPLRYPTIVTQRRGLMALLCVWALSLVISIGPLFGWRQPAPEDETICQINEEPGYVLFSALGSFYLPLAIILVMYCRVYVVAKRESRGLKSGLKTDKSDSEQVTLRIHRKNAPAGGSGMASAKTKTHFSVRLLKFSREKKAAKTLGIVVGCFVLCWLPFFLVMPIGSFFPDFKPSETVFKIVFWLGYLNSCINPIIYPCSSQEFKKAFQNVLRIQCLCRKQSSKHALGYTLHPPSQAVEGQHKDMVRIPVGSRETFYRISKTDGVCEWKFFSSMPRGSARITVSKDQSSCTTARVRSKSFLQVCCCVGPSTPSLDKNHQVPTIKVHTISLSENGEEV
From the text: as §1, §2

[3] = target: T3, human α1B adrenergic receptor (Homo sapiens, UniProt P35368); test: Binding at human α1B adrenergic receptor; details: Table 8; read-out: hα1B Ki
T3 construct: host or cells: LM(tk-) cells, line L-α1B
T3 sequence (P35368 1-520): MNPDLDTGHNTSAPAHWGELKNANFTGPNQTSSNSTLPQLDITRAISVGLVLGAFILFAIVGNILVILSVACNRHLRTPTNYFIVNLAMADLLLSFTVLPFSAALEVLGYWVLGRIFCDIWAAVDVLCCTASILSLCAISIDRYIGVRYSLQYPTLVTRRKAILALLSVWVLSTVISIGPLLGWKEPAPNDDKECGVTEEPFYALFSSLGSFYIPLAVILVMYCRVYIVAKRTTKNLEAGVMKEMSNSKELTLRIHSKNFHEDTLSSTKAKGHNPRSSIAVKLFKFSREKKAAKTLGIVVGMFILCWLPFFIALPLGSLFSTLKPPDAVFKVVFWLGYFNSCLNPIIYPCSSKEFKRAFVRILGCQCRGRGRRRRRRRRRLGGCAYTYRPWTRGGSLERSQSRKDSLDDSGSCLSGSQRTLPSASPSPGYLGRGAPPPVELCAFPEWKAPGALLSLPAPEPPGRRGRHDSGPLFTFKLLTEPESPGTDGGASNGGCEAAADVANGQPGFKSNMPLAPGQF
From the text: as §1, §2

rat NPFF2 receptor = target: T4, rat NPFF2 receptor (Rattus norvegicus, UniProt Q9EQD2); test: Functional assay (agonist potency, intrinsic activity) at cloned rat NPFF2 receptor; assay type: cell-based; details: Table 7, intrinsic activity
T4 construct: The full-length NPFF2 was amplified from rat spinal cord cDNA; expressed in transfected cells; host or cells: not given
T4 sequence (Q9EQD2 whole entry): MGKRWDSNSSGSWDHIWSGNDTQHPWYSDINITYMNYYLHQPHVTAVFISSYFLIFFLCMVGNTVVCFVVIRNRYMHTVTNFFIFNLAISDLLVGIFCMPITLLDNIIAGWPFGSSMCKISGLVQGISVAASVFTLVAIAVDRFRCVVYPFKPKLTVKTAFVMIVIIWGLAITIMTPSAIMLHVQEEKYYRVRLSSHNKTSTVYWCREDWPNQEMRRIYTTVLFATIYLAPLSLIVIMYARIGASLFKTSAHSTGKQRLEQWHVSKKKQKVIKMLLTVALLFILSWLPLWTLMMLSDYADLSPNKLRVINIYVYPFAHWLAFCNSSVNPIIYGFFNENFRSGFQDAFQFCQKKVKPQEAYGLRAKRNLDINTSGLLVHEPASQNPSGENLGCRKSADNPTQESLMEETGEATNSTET

[4] = target: T5, serotonin (5HT) transporter (Rattus norvegicus, UniProt P31652); test: Binding at native serotonin transporter (5HT uptake); details: Table 8
T5 construct: evaluated at native, tissue-derived transporters; from tissue
T5 sequence (P31652 whole entry): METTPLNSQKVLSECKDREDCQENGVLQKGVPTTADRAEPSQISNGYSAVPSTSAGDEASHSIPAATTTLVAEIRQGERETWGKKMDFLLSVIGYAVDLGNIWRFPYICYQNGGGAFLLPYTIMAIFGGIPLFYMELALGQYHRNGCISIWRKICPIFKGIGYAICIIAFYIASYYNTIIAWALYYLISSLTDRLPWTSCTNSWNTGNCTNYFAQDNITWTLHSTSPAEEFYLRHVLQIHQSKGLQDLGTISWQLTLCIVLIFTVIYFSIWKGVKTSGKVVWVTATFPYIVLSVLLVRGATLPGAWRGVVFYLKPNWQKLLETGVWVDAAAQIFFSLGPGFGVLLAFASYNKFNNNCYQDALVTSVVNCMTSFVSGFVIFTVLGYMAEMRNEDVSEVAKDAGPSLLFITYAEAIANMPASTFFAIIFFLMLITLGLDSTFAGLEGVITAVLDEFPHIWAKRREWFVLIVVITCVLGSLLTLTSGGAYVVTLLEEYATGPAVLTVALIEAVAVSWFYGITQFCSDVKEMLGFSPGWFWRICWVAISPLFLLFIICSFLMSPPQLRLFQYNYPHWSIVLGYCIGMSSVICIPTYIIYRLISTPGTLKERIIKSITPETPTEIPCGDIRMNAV
Experimental: (§3) Transporters: The binding properties of compounds were evaluated at native, tissue-derived transporters, namely serotonin (5HT) transporter and norepinephrine (NE) transporter, according to protocols described in Owens (1997), the disclosure of which is hereby incorporated by reference in its entirety into this application.
as §2

human Y4 receptor = target: T6, human Y4 receptor (Homo sapiens, UniProt P50391); test: Binding at human neuropeptide Y Y4 receptor; details: Table 8; read-out: hY4 Ki
T6 construct: host or cells: L cells, line L-hY4-3
T6 sequence (P50391 whole entry): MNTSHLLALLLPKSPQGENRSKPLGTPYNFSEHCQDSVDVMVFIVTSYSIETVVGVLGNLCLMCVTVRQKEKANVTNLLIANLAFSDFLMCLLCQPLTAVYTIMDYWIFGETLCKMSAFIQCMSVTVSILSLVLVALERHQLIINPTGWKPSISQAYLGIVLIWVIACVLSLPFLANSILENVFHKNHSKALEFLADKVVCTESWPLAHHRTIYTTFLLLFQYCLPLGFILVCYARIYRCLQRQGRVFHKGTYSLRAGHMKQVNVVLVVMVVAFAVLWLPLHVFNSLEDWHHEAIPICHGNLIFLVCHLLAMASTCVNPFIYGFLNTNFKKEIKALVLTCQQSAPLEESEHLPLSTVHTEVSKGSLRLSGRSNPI
From the text: (§4) Neuropeptide receptors: Stably transfected cell lines which may be used for binding experiments include, for the Y1 receptor, 293-hY1-5 (deposited Jun. 4, 1996, under ATCC Accession No. CRL-12121); for the Y2 receptor, 293-hY2-10 (deposited Jan. 27, 1994, under ATCC Accession No. CRL-11837); for the Y4 receptor, L-hY4-3 (deposited Jan. 11, 1995, under ATCC Accession No. CRL 11779); and for the Y5 receptor, L-hY5-7 (deposited Nov. 15, 1995, under ATCC Accession No. CRL 11995).
(§5) Binding assays using the NPY receptors may be carried out according to the procedures described in U.S. Pat. No. 5,602,024, the disclosure of which is hereby incorporated by reference in its entirety into this application.
as §2

human Y1 receptor = target: T7, human Y1 receptor (Homo sapiens, UniProt P25929); test: Binding at human neuropeptide Y Y1 receptor; details: Table 8; read-out: hY1 Ki
T7 construct: host or cells: 293 cells, line 293-hY1-5
T7 sequence (P25929 1-384): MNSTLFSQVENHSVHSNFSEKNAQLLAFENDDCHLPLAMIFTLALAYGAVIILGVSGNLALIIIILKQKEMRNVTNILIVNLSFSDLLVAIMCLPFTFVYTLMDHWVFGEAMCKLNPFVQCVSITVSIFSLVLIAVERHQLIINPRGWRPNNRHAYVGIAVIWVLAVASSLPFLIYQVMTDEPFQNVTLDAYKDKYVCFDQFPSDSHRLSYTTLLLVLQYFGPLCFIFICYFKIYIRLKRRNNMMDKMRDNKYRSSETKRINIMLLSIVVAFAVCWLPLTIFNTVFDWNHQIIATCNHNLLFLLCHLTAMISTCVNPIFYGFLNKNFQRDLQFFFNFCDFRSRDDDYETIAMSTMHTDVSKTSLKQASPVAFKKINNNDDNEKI
From the text: as §4, §5, §2

human Y5 receptor = target: T8, human Y5 receptor (Homo sapiens, UniProt Q15761); test: Binding at human neuropeptide Y Y5 receptor; details: Table 8; read-out: hY5 Ki
T8 construct: host or cells: L cells, line L-hY5-7
T8 sequence (Q15761 1-445): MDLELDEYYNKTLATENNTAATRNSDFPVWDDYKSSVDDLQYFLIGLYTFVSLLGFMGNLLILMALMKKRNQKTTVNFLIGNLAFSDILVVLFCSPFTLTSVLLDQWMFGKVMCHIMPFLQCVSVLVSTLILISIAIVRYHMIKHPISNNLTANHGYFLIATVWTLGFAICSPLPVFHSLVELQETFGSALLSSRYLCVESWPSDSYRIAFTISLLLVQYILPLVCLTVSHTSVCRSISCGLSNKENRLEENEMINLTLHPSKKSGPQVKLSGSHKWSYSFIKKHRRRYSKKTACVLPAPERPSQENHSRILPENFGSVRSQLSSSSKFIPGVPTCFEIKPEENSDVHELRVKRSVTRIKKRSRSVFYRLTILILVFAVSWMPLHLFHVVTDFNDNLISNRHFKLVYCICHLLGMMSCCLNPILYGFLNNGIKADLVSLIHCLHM
From the text: as §4, §5, §2

human Y2 receptor = target: T9, human Y2 receptor (Homo sapiens, UniProt P49146); test: Binding at human neuropeptide Y Y2 receptor; details: Table 8; read-out: hY2 Ki
T9 construct: host or cells: 293 cells, line 293-hY2-10
T9 sequence (P49146 1-381): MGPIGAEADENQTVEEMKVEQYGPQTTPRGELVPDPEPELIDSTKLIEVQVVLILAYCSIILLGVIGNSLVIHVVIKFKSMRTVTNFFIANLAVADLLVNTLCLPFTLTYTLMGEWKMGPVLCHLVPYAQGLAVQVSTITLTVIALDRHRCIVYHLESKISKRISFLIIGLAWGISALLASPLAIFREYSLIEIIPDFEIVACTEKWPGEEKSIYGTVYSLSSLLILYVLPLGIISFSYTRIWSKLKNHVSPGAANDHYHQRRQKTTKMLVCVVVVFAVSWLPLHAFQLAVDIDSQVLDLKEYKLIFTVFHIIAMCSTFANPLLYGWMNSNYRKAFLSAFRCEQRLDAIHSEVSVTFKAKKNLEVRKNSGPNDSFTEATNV
From the text: as §4, §5, §2

[5] = target: T10, norepinephrine (NE) transporter (Rattus norvegicus, UniProt Q63380); test: Binding at native norepinephrine transporter (NE uptake); details: Table 8
T10 construct: evaluated at native, tissue-derived transporters; from tissue
T10 sequence (Q63380 1-617): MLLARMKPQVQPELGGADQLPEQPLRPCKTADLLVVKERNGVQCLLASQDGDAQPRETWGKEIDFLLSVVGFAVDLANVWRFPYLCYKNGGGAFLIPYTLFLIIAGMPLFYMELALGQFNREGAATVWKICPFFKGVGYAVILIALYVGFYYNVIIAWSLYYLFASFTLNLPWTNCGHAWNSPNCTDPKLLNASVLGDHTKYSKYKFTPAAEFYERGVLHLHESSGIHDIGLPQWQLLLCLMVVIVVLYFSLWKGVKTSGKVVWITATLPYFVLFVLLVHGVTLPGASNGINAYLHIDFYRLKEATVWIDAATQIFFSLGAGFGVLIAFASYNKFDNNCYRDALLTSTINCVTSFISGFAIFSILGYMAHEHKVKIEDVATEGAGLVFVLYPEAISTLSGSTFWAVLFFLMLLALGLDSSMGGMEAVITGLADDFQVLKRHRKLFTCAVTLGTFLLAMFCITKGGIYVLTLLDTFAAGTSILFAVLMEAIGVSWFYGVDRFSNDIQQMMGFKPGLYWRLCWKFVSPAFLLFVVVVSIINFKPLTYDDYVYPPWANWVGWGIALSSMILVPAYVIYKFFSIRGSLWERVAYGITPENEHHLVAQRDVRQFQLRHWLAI
Experimental: as §3, §2

pKi [1]	pKi [2]	pKi [3]	rNPFF2 IA (rat NPFF2 receptor) [% NPFF]	SMILES	pKi [4]	pKi (human Y4 receptor)	pKi (human Y1 receptor)	pKi (human Y5 receptor)	pKi (human Y2 receptor)	pKi [5]
4.89	5.30	5.01	16	Cc1nc(NC(=N)N)nc2ccccc12 [Compound 1001A, N-(4-methyl-2-quinazolinyl)guanidine]						
				Cc1cc(NC(=N)N)nc2ccccc12 [Compound 6001A, N-(4-methyl-2-quinolinyl)guanidine]	4.98	4.85	< 4.30	6.13	< 4.30	4.90
